The target in this assay is T1, human Orexin 1 receptor (Homo sapiens, UniProt O43613).
T1 construct: stably expressing the full-length human Orexin 1 receptor; expressed in transfected cells; host or cells: CHO-K1 (CHO-K1/hOx1), co-expressing aequorin
T1 sequence (O43613 1-425): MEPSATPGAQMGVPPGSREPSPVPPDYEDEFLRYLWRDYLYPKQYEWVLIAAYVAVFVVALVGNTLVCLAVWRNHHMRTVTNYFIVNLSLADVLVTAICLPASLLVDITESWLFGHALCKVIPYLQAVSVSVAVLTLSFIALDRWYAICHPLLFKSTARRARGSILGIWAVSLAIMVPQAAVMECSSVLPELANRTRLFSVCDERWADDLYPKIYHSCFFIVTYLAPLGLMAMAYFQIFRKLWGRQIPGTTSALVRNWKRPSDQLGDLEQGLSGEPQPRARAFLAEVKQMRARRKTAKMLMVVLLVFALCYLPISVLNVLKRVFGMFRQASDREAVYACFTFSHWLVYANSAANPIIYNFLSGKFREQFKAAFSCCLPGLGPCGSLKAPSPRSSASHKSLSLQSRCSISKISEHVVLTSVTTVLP
Description: Assay A: in vitro testing of OX1R potency, OX1R IP1. The following applies: for Kb: 0.5 nM Orexin A concentration; for OX2R Kb/OX1R Kb: selectivity ratio of Assay B and Assay A Kb. The assay is classed as cell-based. The text has this:
Activation of the orexin receptors expressed in cell lines results in an increase in intracellular IP3 concentration. IP1, a downstream metabolite of IP3, accumulates in cells following receptor activation and is stable in the presence of LiCl. Using Homogeneous Time-Resolved Fluorescence technology with Lumi4-Tb cryptate (commercially available from Cisbio Bioassay.) and a suitable fluorescence plate reader. This functional response is detectable and quantifiable as described in Trinquet et al. Anal. Biochem. 2006, 358, 126-135, Degorce et al. Curr. Chem. Genomics 2009, 3, 22-32. This technique is used to characterize pharmacological modification of the orexin receptors.
A. In Vitro Testing of OX1R Potency: OX1R IP1
IP1 measurements are performed in CHO-K1 cells stably expressing the full-length human Orexin 1 receptor and the aequorin photoprotein. Cells are cultivated in Ham's nutrient mixture F12 medium with 10% fetal calf serum, in a 37° C., 95% humidity and 5% CO2 incubator. The CHO-K1/hOx1 cell mass is expanded to larger cell numbers. The cells are obtained as frozen cells in cryo-vials and stored until use at −150° C. The viability of the cells after thawing is >90%. In preparation for the assay, 24 hours before the assay, the cells are thawed at 37° C. and immediately diluted with cell culture medium. After centrifugation, the cell pellet is re-suspended in medium and then distributed into the assay plates with a density of 10000 cells/25 μL per well. The plates are incubated for one hour at room temperature to reduce edge effects before they are incubated for 24 hours at 37° C./5% CO2. Compounds are prepared by an 8-point serial dilution in DMSO and a final dilution step into assay buffer (HBSS with 20 mM HEPES, 0.1% BSA and 50 mM LiCl, pH 7.4) to ensure a final DMSO concentration of 1% in the assay.
On the day of the assay, cells in the plate are washed twice with 60 μL assay buffer (20 μL buffer remained in the wells after washing), followed by adding 5 μL per well of compounds diluted in assay buffer. After 15 minutes of incubation at room temperature 5 μL per well of Orexin A peptide (final concentration: 0.5 nM, and/or 50 nM) dissolved in assay buffer is added to the assay plate. The assay plate is incubated for 60 minutes at 37° C. Then 5 μl per well of Anti-IP1-Cryptate Tb solution and 5 μl per well of IP1-d2 dilution are added and the plate is incubated for a further 60 minutes light protected at room temperature. The emissions at 615 nm and 665 nm (Excitation wavelength: 320 nm) are measured using an EnVision reader (PerkinElmer). The ratio between the emission at 665 nm and 615 is calculated by the reader.
8-point four parametric non-linear curve fitting and determination of IC50 values and Hill slopes is performed using a regular analysis software e.g. AssayExplorer (Accelrys). In order to establish an agonist concentration independent parameter, Kb values are calculated using the following equation: IC50/((2+(A/EC50)^n)^1/n−1) (with A=concentration agonist, EC50=EC50 agonist, n=Hill slope agonist) (see P. Leff, I. G. Dougall, Trends Pharmacol. Sci. 1993, 14(4),110-112).

As to `C[C@@H](CNc1ncc(C(F)(F)F)cn1)N(CC(F)F)C(=O)c1cc(F)cc(F)c1-n1nccn1` [Example 1], the Kb came out at 1.17 nM and the “OX2R Kb/OX1R Kb” value is recorded as 214.
On to `C[C@@H](CNc1ncc(C(F)(F)F)cn1)N(CC(F)F)C(=O)c1cccc(F)c1-n1nccn1` [Example 2], for which the Kb came to 0.63 nM and the “OX2R Kb/OX1R Kb” value is given as 138.
For the compound `C[C@@H](CNc1ncc(C(F)(F)F)cn1)N(CC(F)F)C(=O)c1cccc(F)c1-c1ncccn1` [Example 3], the Kb is 0.19 nM and the “OX2R Kb/OX1R Kb” value is reported as 568.
The corresponding values for `C[C@@H](CNc1ncc(C(F)(F)F)cn1)N(CC(F)F)C(=O)c1cc(F)ccc1-c1ncccn1` [Example 4] are 0.42 nM and 169.
Consider `C[C@@H](CNc1ncc(C(F)(F)F)cn1)N(CC(F)F)C(=O)c1c(F)cccc1-c1ncccn1` [Example 5], for which the Kb was 0.67 nM and the “OX2R Kb/OX1R Kb” value was determined as 213.
